Marks after values point to notes of the source that are not given here.
Columns and labels:
[1] = test system: hepatic fibrosis in rats induced by dimethylnitrosamine (DMN); test: Treatment effect on hepatic fibrosis in rats induced by dimethylnitrosamine (DMN); format: in vivo, rat
Description: Pharmacological model: The hepatic fibrosis model was induced by intraperitoneal injections of dimethylnitrosamine at a dosage of […] rat wt, the injection was given on the first consecutive 3 days of each week over a period of 4 weeks, once per day.
Groups and drug administration: After establishing the model, the model rats were divided into model control, Fuzheng Huayu Prep I, Fuzheng Huayu Prep II, and (N-Acetylcysteine, NAC) groups, also normal rats was set as the normal control, with total 5 groups. The model rats in Fuzheng Huayu Prep I and II took orally Fuzheng Huayu decoction at the dosage of 4.6 g/kg rat wt from the beginning of the 5th week to end of the 8th week, one time per day for 4 weeks, NAC group received NAC at the dosage of 100 mg/kg wt, and controls took the same volume of saline. (body weight equivalent to 10 times of 65 kg adult dosage).

[2] = test system: liver fibrosis model in rat induced by CCl4; test: Prophylaxis action on liver fibrosis in rats induced by CCl4 with high lipid, low protein food; format: in vivo
Description: Pharmacological model: The liver fibrosis model in rat was induced by hypodermical injection of CCl4 and fed with the food containing high lipid and low protein. 100 wt % CCl4 was used at the first injection with a dosage of 1 ml/kg wt rat, then 40 wt % CCl4 in olive oil with a dosage of 3 ml/kg wt. was applied, twice per week and lasting for 2 weeks. During the first 2 weeks of intoxication, the rats were fed with the food containing 79.5 wt % maizena, 20 wt % grease and 0.5 wt % cholesterol, then with the pure maize food for later 4 weeks.
All dosages were 10 times human dosage with 65 kg by the same body weight.

[3] = DMN fibrotic rats, 4 weeks treatment, x ± s
[4] = Preps 4.6 g/kg or NAC 100 mg/kg once daily, weeks 5-8
[5] = CCl4 fibrotic rats, 6 weeks dosing, x ± s
[6] = Preps 4.6 g/kg or VitE 50 mg/kg orally once daily for 6 weeks

Compound: CC(=O)N[C@@H](CS)C(=O)O [NAC, N-Acetylcysteine]
- Hepatic Hyp content [1, 3]: 482.1 ± 124.4 μg/g liver
- Hepatic SOD activity [1, 3]: 252.2 ± 47.6^# 10^3 × NU/g protein
- Serum ALT [1, 3]: 67.7 ± 36.1 U/L
- Serum AST [1, 3]: 76.5 ± 25.5 U/L
- Serum Alb [1, 3]: 30.9 ± 5.5 g/L
- Serum T. BIL [1, 3]: 18.8 ± 2.8 µmol/L
- Serum T. Protein [1, 3]: 60.4 ± 11.2 g/L
- Liver fibrotic stage S0 (number of rats) [1, 4]: 0
- Liver fibrotic stage S1 (number of rats) [1, 4]: 1
- Liver fibrotic stage S2 (number of rats) [1, 4]: 5
- Liver fibrotic stage S3 (number of rats) [1, 4]: 4
- Liver fibrotic stage S4 (number of rats) [1, 4]: 2
- R (Ridit examination of liver fibrotic stages) [1, 4]: 0.415^#

Compound: Vitamin E [Vit E]
- Liver tissue pathological examination (hepatic inflammation, collagen deposition; HE and Sirius red staining), in words ([2]; CCl4 fibrotic rats, vs. model control): much better conditions of hepatic inflammation compared to the controls
- Hepatic Hyp [2, 5]: 296.2 ± 49.8 μg/g liver
- Hepatic MDA [2, 5]: 4.5 ± 1.3 μmol/g protien
- Hepatic SOD [2, 5]: 1062 ± 83 NU/g liver
- Hepatic Triglyceride [2, 5]: 12.6 ± 3.7 μg/g liver
- Serum ALT [2, 5]: 106.4 ± 45.9 U/L
- Serum AST [2, 5]: 127.7 ± 37.2 U/L
- Serum T. BIL [2, 5]: 14.1 ± 3.3 µmol/L
- Serum T. Protein [2, 5]: 55.8 ± 4.2 g/L
- Liver fibrotic stage S0 (number of rats) [2, 6]: 0
- Liver fibrotic stage S1 (number of rats) [2, 6]: 6
- Liver fibrotic stage S2 (number of rats) [2, 6]: 6
- Liver fibrotic stage S3 (number of rats) [2, 6]: 2
- Liver fibrotic stage S4 (number of rats) [2, 6]: 0
- R (Ridit examination of liver fibrotic stages) [2, 6]: 0.506^#
